Experimental data reported in patent US9193719B2, “1,2,4-triazol-5-ones and analogs exhibiting anti-cancer and anti-proliferative activities” (Deciphera Pharmaceuticals, LLC, priority 2013, dated 2015).

Tests used:
[1] = molecular target: T1, unphosphorylated c-KIT kinase (uKIT, Seq. ID no. 2) (Homo sapiens, UniProt P10721); test: uKit kinase enzymatic assay (pyruvate kinase/lactate dehydrogenase coupled); assay type: biochemical; details: ATP 2000 μM, rate 3 to 4 h
T1 construct: uKit with N-terminal GST fusion used for screening
Outline: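 Coupled pyruvate kinase/lactate dehydrogenase readout of ADP, following NADH oxidation at A340 continuously for 4 h at 30 °C. Mix: 12 nM unphosphorylated KIT, 1 mg/mL polyE4Y, 2000 μM ATP, 10 mM MgCl2, 90 mM Tris pH 7.5, 0.2% octyl-glucoside, 1% DMSO. IC50 from % inhibition of rates at 3–4 h.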

[2] = tested on: phospho-FMS in THP-1 cells; test: Phospho-FMS ELISA assay in THP-1 cells; assay type: cell-based; details: Homo sapiens, 4 h compound, M-CSF stimulation 5 min, read-out: pFMS inhibition in THP-1 cells
Procedure: THP-1 cells (catalog #TIB-202) were obtained from the ATCC. Briefly, cells were grown in RPMI 1640 supplemented with 10% characterized fetal bovine serum, 1% sodium pyruvate, 1% Penicillin-Streptomycin-Glutamine (PSG) and 55 uM 2-mercaptoethanol (Invitrogen, Carlsbad, Calif.) at 37 degrees Celsius, 5% CO2, 95% humidity. Cells were allowed to expand until reaching 70-95% confluency at which point they were subcultured or harvested for assay use.
A serial dilution of test compound was diluted 1:100 in assay medium (RPMI 1640 supplemented with 10% characterized fetal bovine serum) in a 96 well black clear bottom plate (Corning, Corning, N.Y.). In a separate 96 well black clear bottom plate, one hundred and fifty thousand THP-1 cells were added per well in 100 μL in assay medium. Fifty microliters of diluted compound was then added to the cells. Plates were incubated for 4 hours at 37 degrees Celsius, 5% CO2, 95% humidity. At the end of the incubation period, cells were stimulated with 50 μL of a 100 nM solution of recombinant human M-CSF (catalog #216-MC, R & D Systems, Minneapolis, Minn.) in assay medium and the plate was incubated for 5 minutes at 37 degrees Celsius, 5% CO2, 95% humidity. Lysates were prepared and used to perform the phospho-FMS ELISA as described by the manufacturer (catalog #DYC3268, R & D Systems, Minneapolis, Minn.). GraphPad Prism was used to calculate IC50 values obtained from data generated from the ELISA assay.

[3] = tested on: MDA-MB-231-luc-D3H2LN human breast carcinoma xenograft; test: MDA-MB-231 xenograft study; assay type: in vivo, mouse; details: orally dosed at 15 mpk twice daily
Procedure: MDA-MB-231 Xenograft Study
To evaluate the in vivo anti-cancer activity compounds of Formula I, a MDA-MB-231-luc-D3H2LN human breast carcinoma xenograft was employed. Briefly, MDA-MB-231-luc-D3H2LN cells were obtained from Xenogen and expanded in Minimal Essential Media (MEM) with EBSS which was modified with 1% L-glutamine and supplemented with 10% FBS, 1% PSG, 1% non-essential amino acids, and 1% sodium pyruvate. The growth environment was maintained in an incubator with a 5% CO2 atmosphere at 37° C. Cells were harvested and re-suspended using 50% serum-free media and 50% Matrigel® to generate a stock concentration of 5×10^6 cells/mL.
Six to 7 week old female C.B-17/IcrHsd-PrkdcscidLystbg mice were injected with 200 μL of cell suspension subcutaneously, just below the right axilla. All procedures carried out in this experiment were conducted in compliance with all the laws, regulations and guidelines of the National Institutes of Health (NIH). Treatment began when the mean tumor burden is approximately 150 mg. All mice were dosed with test compound by oral gavage. Body weights and tumor measurements were recorded three times weekly. […] Images were analyzed using Living Image (Xenogen, Alameda, Calif.) software. […]

T1 sequence (P10721 with tags, fused parts or gaps): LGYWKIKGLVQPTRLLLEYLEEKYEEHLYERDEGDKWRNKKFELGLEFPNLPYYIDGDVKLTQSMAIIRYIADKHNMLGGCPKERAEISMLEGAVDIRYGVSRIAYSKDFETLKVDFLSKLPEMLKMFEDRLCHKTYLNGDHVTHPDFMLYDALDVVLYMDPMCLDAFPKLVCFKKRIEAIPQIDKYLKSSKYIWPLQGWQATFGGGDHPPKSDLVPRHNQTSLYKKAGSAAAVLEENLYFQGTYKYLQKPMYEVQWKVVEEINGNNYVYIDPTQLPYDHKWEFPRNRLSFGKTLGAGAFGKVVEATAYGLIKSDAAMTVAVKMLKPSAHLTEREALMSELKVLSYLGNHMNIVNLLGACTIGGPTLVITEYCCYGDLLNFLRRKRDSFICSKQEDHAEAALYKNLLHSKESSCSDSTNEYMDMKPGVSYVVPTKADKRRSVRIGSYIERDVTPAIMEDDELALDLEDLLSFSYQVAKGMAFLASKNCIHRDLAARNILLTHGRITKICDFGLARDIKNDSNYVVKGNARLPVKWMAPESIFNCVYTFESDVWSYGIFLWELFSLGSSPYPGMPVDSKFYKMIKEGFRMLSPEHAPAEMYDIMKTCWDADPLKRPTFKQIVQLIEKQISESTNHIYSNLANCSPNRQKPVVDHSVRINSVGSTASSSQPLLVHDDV

SMILES	IC50 [1]	IC50 [2]	tumor growth inhibition [3]
Cc1nc(-n2nc(C(C)(C)C)[nH]c2=O)ccc1Oc1ccnc(-c2cnn(C)c2)c1 [Example 7, 3-(tert-butyl)-1-(6-methyl-5-((2-(1-methyl-1H-pyrazol-4-yl)pyridin-4-yl)oxy)pyridin-2-yl)-1H-1,2,4-triazol-5(4H)-one]	100 to 1000 nM	10 to 100 nM	39%
Cc1nc(-n2nc(CC(C)C)[nH]c2=O)ccc1Oc1ccnc(-c2cnn(C)c2)c1 [Example 22, 3-isobutyl-1-(6-methyl-5-((2-(1-methyl-1H-pyrazol-4-yl)pyridin-4-yl)oxy)pyridin-2-yl)-1H-1,2,4-triazol-5(4H)-one]	10 to 100 nM	≤ 10 nM	–
Cc1nc(-n2nc(C(C)(C)C)[nH]c2=O)ccc1Oc1ccnc(-c2cnco2)c1 [Example 39, 3-(tert-butyl)-1-(6-methyl-5-((2-(oxazol-5-yl)pyridin-4-yl)oxy)pyridin-2-yl)-1H-1,2,4-triazol-5(4H)-one]	> 1000 nM	100 to 1000 nM	–
Cc1nc(-n2nc(CC(C)(C)C)[nH]c2=O)ccc1Oc1ccnc(-c2cnn(C)c2)c1 [Example 36, 1-(6-methyl-5-((2-(1-methyl-1H-pyrazol-4-yl)pyridin-4-yl)oxy)pyridin-2-yl)-3-neopentyl-1H-1,2,4-triazol-5(4H)-one]	10 to 100 nM	10 to 100 nM	–
Cc1nc(-n2cc(C(C)(C)C)[nH]c2=O)ccc1Oc1ccnc(-c2cnn(C)c2)c1 [Example 48, 4-(tert-butyl)-1-(6-methyl-5-((2-(1-methyl-1H-pyrazol-4-yl)pyridin-4-yl)oxy)pyridin-2-yl)-1H-imidazol-2(3H)-one]	> 1000 nM	10 to 100 nM	–
COC(C)(C)c1nn(-c2ccc(Oc3ccnc(-c4cnn(C)c4)c3)c(C)n2)c(=O)[nH]1 [Example 16, 3-(2-methoxypropan-2-yl)-1-(6-methyl-5-((2-(1-methyl-1H-pyrazol-4-yl)pyridin-4-yl)oxy)pyridin-2-yl)-1H-1,2,4-triazol-5(4H)-one]	> 1000 nM	100 to 1000 nM	–
